Assay results: patent US7368578B2, “Five-membered heterocyclic compounds” (Takeda Pharmaceutical Company Limited, priority 2002, dated 2008)

Row | melting point | Structure (SMILES)
1 | 175 to 176 °C | COc1cc(COc2nn(Cc3ccccc3)cc2/C=C/C(=O)O)ccc1OCc1nc(-c2ccco2)oc1C [Example 260, (2E)-3-{1-benzyl-3-[(4-{[2-(2-furyl)-5-methyl-1,3-oxazol-4-yl]methoxy}-3-methoxybenzyl)oxy]-1H-pyrazol-4-yl}-2-propenoic acid]
2 | 209 to 210 °C | Cc1oc(-c2ccccc2)nc1COc1ccc(OCc2oc(-c3ccccc3)nc2/C=C/C(=O)O)cc1 [Example 261, (2E)-3-[5-({4-[(5-methyl-2-phenyl-1,3-oxazol-4-yl)methoxy]phenoxy}methyl)-2-phenyl-1,3-oxazol-4-yl]-2-propenoic acid]
3 | 252 to 253 °C | COc1cc(COc2nn(-c3ccccc3)cc2/C=C2\SC(=O)NC2=O)ccc1OCc1nc(-c2ccco2)oc1C [Example 262, (5Z)-5-({3-[(4-{[2-(2-furyl)-5-methyl-1,3-oxazol-4-yl]methoxy}-3-methoxybenzyl)oxy]-1-phenyl-1H-pyrazol-4-yl}methylene)-1,3-thiazolidine-2,4-dione]
4 | 142 to 143 °C | CCOC(=O)c1cnc(-c2ccccc2)nc1OCc1ccc(OCc2nc(-c3ccco3)oc2C)c(OC)c1 [Example 263, ethyl 4-[(4-{[2-(2-furyl)-5-methyl-1,3-oxazol-4-yl]methoxy}-3-methoxybenzyl)oxy]-2-phenylpyrimidine-5-carboxylate]
5 | 134 to 135 °C | CCOC(=O)c1cn(C)nc1OCc1ccc(OCc2nc(-c3ccccc3)oc2C)c(OC)c1 [Example 264, ethyl 3-{[3-methoxy-4-(5-methyl-2-phenyl-1,3-oxazol-4-ylmethoxy)benzyl]oxy}-1-methyl-1H-pyrazole-4-carboxylate]
6 | 169 to 170 °C | COc1cc(COc2nn(C)cc2C(=O)O)ccc1OCc1nc(-c2ccccc2)oc1C [Example 265, 3-{[3-methoxy-4-(5-methyl-2-phenyl-1,3-oxazol-4-ylmethoxy)benzyl]oxy}-1-methyl-1H-pyrazole-4-carboxylic acid]
7 | 108 to 109 °C | COc1cc(COc2nn(C)cc2CO)ccc1OCc1nc(-c2ccccc2)oc1C [Example 266, (3-{[3-methoxy-4-(5-methyl-2-phenyl-1,3-oxazol-4-ylmethoxy)benzyl]oxy}-1-methyl-1H-pyrazol-4-yl)methanol]
8 | 123 to 124 °C | COc1cc(COc2nn(C)cc2C=O)ccc1OCc1nc(-c2ccccc2)oc1C [Example 267, 3-{[3-methoxy-4-(5-methyl-2-phenyl-1,3-oxazol-4-ylmethoxy)benzyl]oxy}-1-methyl-1H-pyrazole-4-carbaldehyde]
9 | 168 to 169 °C | COc1cc(COc2nn(C)cc2C(N)=O)ccc1OCc1nc(-c2ccccc2)oc1C [Example 268, 3-{[3-methoxy-4-(5-methyl-2-phenyl-1,3-oxazol-4-ylmethoxy)benzyl]oxy}-1-methyl-1H-pyrazole-4-carboxamide]
10 | 138 to 139 °C | COc1cc(COc2nn(C)cc2C(=O)N(C)OC)ccc1OCc1nc(-c2ccccc2)oc1C [Example 269, N-methoxy-N-methyl-3-{[3-methoxy-4-(5-methyl-2-phenyl-1,3-oxazol-4-ylmethoxy)benzyl]oxy}-1-methyl-1H-pyrazole-4-carboxamide]
11 | 170 to 171 °C | COc1cc(COc2nn(C)cc2C(C)=O)ccc1OCc1nc(-c2ccccc2)oc1C [Example 270, 1-(3-{[3-methoxy-4-(5-methyl-2-phenyl-1,3-oxazol-4-ylmethoxy)benzyl]oxy}-1-methyl-1H-pyrazol-4-yl)ethanone]
12 | 94 to 95 °C | COc1cc(COc2nn(C)cc2C(C)O)ccc1OCc1nc(-c2ccccc2)oc1C (stereo not shown) [Example 271, 1-(3-{[3-methoxy-4-(5-methyl-2-phenyl-1,3-oxazol-4-ylmethoxy)benzyl]oxy}-1-methyl-1H-pyrazol-4-yl)ethanol]
13 | 160 to 161 °C | CCOC(=O)c1cn(-c2ccccc2)nc1OCc1ccc(OCc2nc(-c3ccccc3)oc2C)c(OC)c1 [Example 272, ethyl 3-{[3-methoxy-4-(5-methyl-2-phenyl-1,3-oxazol-4-ylmethoxy)benzyl]oxy}-1-phenyl-1H-pyrazole-4-carboxylate]
14 | 209 to 210 °C | COc1cc(COc2nn(-c3ccccc3)cc2C(=O)O)ccc1OCc1nc(-c2ccccc2)oc1C [Example 273, 3-{[3-methoxy-4-(5-methyl-2-phenyl-1,3-oxazol-4-ylmethoxy)benzyl]oxy}-1-phenyl-1H-pyrazole-4-carboxylic acid]
15 | 142 to 143 °C | COc1cc(COc2nn(-c3ccccc3)cc2C=O)ccc1OCc1nc(-c2ccccc2)oc1C [Example 275, 3-{[3-methoxy-4-(5-methyl-2-phenyl-1,3-oxazol-4-ylmethoxy)benzyl]oxy}-1-phenyl-1H-pyrazole-4-carbaldehyde]
16 | 190 to 191 °C | COc1cc(COc2nn(-c3ccccc3)cc2C(N)=O)ccc1OCc1nc(-c2ccccc2)oc1C [Example 276, 3-{[3-methoxy-4-(5-methyl-2-phenyl-1,3-oxazol-4-ylmethoxy)benzyl]oxy}-1-phenyl-1H-pyrazole-4-carboxamide]

Row | melting point | Structure (SMILES)
17 | 156 to 158 °C | COc1cc(CC(=O)Nc2nn(-c3ccccc3)cc2C=O)ccc1OCc1nc(-c2ccccc2)oc1C [Example 277, N-(4-formyl-1-phenyl-1H-pyrazol-3-yl)-2-{3-methoxy-4-[(5-methyl-2-phenyl-1,3-oxazol-4-yl)methoxy]phenyl}acetamide]
18 | 174 to 175 °C | COc1cc(COc2nn(-c3ccccc3)cc2C#N)ccc1OCc1nc(-c2ccccc2)oc1C [Example 278, 3-{[3-methoxy-4-(5-methyl-2-phenyl-1,3-oxazol-4-ylmethoxy)benzyl]oxy}-1-phenyl-1H-pyrazole-4-carbonitrile]
19 | 143 to 144 °C | COc1cc(COc2nc(-c3ccccc3)ncc2C=O)ccc1OCc1nc(-c2ccco2)oc1C [Example 280, 4-[(4-{[2-(2-furyl)-5-methyl-1,3-oxazol-4-yl]methoxy}-3-methoxybenzyl)oxy]-2-phenylpyrimidine-5-carbaldehyde]
20 | 188 to 189 °C | COc1cc(COc2nn(-c3ccccc3)cc2/C=C/C(=O)O)ccc1OCc1nc(-c2ccccc2)oc1C [Example 281, (E)-3-(3-{[3-methoxy-4-(5-methyl-2-phenyl-1,3-oxazol-4-ylmethoxy)benzyl]oxy}-1-phenyl-1H-pyrazol-4-yl)-2-propenoic acid]
21 | 137 to 138 °C | COc1cc(COc2nn(-c3ccccc3)cc2CC#N)ccc1OCc1nc(-c2ccccc2)oc1C [Example 283, (3-{[3-methoxy-4-(5-methyl-2-phenyl-1,3-oxazol-4-ylmethoxy)benzyl]oxy}-1-phenyl-1H-pyrazol-4-yl)acetonitrile]
22 | 212 to 213 °C | COc1cc(C(=O)Nc2nn(-c3ccccc3)cc2C=O)ccc1OCc1nc(-c2ccco2)oc1C [Example 290, N-(4-formyl-1-phenyl-1H-pyrazol-3-yl)-4-{[2-(2-furyl)-5-methyl-1,3-oxazol-4-yl]methoxy}-3-methoxybenzamide]
23 | 143 to 144 °C | COC(=O)c1cc(OCc2ccc(OCc3nc(-c4ccccc4)oc3C)c(OC)c2)nn1-c1ccccc1 [Example 291, methyl 3-{[3-methoxy-4-(5-methyl-2-phenyl-1,3-oxazol-4-ylmethoxy)benzyl]oxy}-1-phenyl-1H-pyrazole-5-carboxylate]
24 | 192 to 193 °C | COc1cc(COc2cc(C(=O)O)n(-c3ccccc3)n2)ccc1OCc1nc(-c2ccccc2)oc1C [Example 292, 3-{[3-methoxy-4-(5-methyl-2-phenyl-1,3-oxazol-4-ylmethoxy)benzyl]oxy}-1-phenyl-1H-pyrazole-5-carboxylic acid]
25 | 146 to 147 °C | COc1cc(COc2cc(CO)n(-c3ccccc3)n2)ccc1OCc1nc(-c2ccccc2)oc1C [Example 293, (3-{[3-methoxy-4-(5-methyl-2-phenyl-1,3-oxazol-4-ylmethoxy)benzyl]oxy}-1-phenyl-1H-pyrazol-5-yl)methanol]
26 | 119 to 120 °C | COc1cc(COc2cc(C=O)n(-c3ccccc3)n2)ccc1OCc1nc(-c2ccccc2)oc1C [Example 294, 3-{[3-methoxy-4-(5-methyl-2-phenyl-1,3-oxazol-4-ylmethoxy)benzyl]oxy}-1-phenyl-1H-pyrazole-5-carbaldehyde]
27 | 205 to 206 °C | CCOC(=O)/C=C/c1cn(-c2ccc(C(F)(F)F)cc2)nc1OCc1ccc(OCc2nc(-c3ccccc3)oc2C)c(OC)c1 [Example 295, ethyl (2E)-3-{3-({3-methoxy-4-[(5-methyl-2-phenyl-1,3-oxazol-4-yl)methoxy]benzyl}oxy)-1-[4-(trifluoromethyl)phenyl]-1H-pyrazol-4-yl}-2-propenoate]
28 | 118 to 119 °C | COc1cc(COc2nn(-c3ccc(C(F)(F)F)cc3)cc2/C=C/CO)ccc1OCc1nc(-c2ccccc2)oc1C [Example 296, (2E)-3-{3-({3-methoxy-4-[(5-methyl-2-phenyl-1,3-oxazol-4-yl)methoxy]benzyl}oxy)-1-[4-(trifluoromethyl)phenyl]-1H-pyrazol-4-yl}-2-propen-1-ol]
29 | 131 to 132 °C | COc1cc(COc2nn(-c3ccc(C(F)(F)F)cc3)cc2/C=C/C(=O)OCOC(=O)C(C)(C)C)ccc1OCc1nc(-c2ccccc2)oc1C [Example 297, [(2,2-dimethylpropanoyl)oxy]methyl (2E)-3-{3-({3-methoxy-4-[(5-methyl-2-phenyl-1,3-oxazol-4-yl)methoxy]benzyl}oxy)-1-[4-(trifluoromethyl)phenyl]-1H-pyrazol-4-yl}-2-propenoate]
30 | 120 to 121 °C | COc1cc(COc2cc(C#N)n(-c3ccccc3)n2)ccc1OCc1nc(-c2ccccc2)oc1C [Example 298, 3-{[3-methoxy-4-(5-methyl-2-phenyl-1,3-oxazol-4-ylmethoxy)benzyl]oxy}-1-phenyl-1H-pyrazole-5-carbonitrile]
31 | 121 to 122 °C | CCOC(=O)/C=C/c1cc(OCc2ccc(OCc3nc(-c4ccccc4)oc3C)c(OC)c2)nn1-c1ccccc1 [Example 299, ethyl (E)-3-(3-{[3-methoxy-4-(5-methyl-2-phenyl-1,3-oxazol-4-ylmethoxy)benzyl]oxy}-1-phenyl-1H-pyrazol5-yl)-2-propenoate]
